Our source for the MIC, ED50 and Cmax values is ChEMBL document CHEMBL1126257, “Fluoronaphthyridines and -quinolones as antibacterial agents. 5. Synthesis and antimicrobial activity of chiral 1-tert-butyl-6-fluoro-7-substituted-naphthyridones” (J Med Chem, 1992).

One data set has as its system Enterococcus faecium. Briefly: In vitro antibacterial activity against Enterococcus faecium A 24885. The data set is classed as functional. The note with it: Enterococcus faecium; read-out: MIC.
The test system of another data set is Serratia marcescens. Briefly: In vitro antibacterial activity against Serratia marcescens A 20019. The data set is classed as functional. The note with it: Serratia marcescens; read-out: MIC.
The subject of the next data set is Enterococcus faecalis. Briefly: In vitro antibacterial activity against Enterococcus faecalis A9809. The format is functional. The note with it: Enterococcus faecalis; read-out: MIC.
In data set [1] the test system is Escherichia coli. Briefly: In vitro antibacterial activity against Escherichia coli A 15119. The format is functional. The note with it: Escherichia coli; read-out: MIC.
For a further data set, the system named is Morganella morganii. Briefly: In vitro antibacterial activity against Morganella morganii A 15153. The format is functional. The conditions noted are these: Morganella morganii; read-out: MIC.
The subject of the next data set is Enterobacter cloacae. Briefly: In vitro antibacterial activity against Enterobacter cloacae A 9656. The format is functional. The note with it: Enterobacter cloacae; read-out: MIC.
Data set [2] has as its system Klebsiella pneumoniae. Briefly: In vitro antibacterial activity against Klebsiella pneumoniae A 9664. The data set is classed as functional. The note with it: Klebsiella pneumoniae; read-out: MIC.
In data set [3] the test system is Staphylococcus aureus. Briefly: In vitro antibacterial activity against Staphylococcus aureus A9537. The conditions noted are these: Staphylococcus aureus; read-out: MIC. The format is functional.
Data set [4] concerns Pseudomonas aeruginosa. Briefly: In vitro antibacterial activity against Pseudomonas aeruginosa A 9243. The format is functional. The note with it: Pseudomonas aeruginosa; read-out: MIC.
For data set [5], the system named is Staphylococcus aureus. Briefly: animal or person. The conditions noted are these: in Mus musculus, po, read-out: PD50.
Description: In vivo potency on systemic infection caused by Staphylococcus aureus A9537 after oral administration to mice expressed as median protective dose.
Data set [6] deals with Escherichia coli. Briefly: (§1) In vivo potency on systemic infection caused by after oral administration to mice expressed as median protective dose. The data set is classed as functional. The conditions noted are these: read-out: PD50.
Data set [7] deals with Pseudomonas aeruginosa. The data set is described as §1. The data set is classed as functional. The note with it: read-out: PD50.
The subject of data set [8] is Klebsiella pneumoniae. The description is as §1. The data set is classed as functional. The note with it: read-out: PD50.
A short description of a further data set: in vivo. The note with it: mouse, po, 50 mg/kg.
For data set [9], the system named is Escherichia coli. Briefly: In vivo potency on systemic infection caused Escherichia coli A 15119 by after oral administration to mice expressed as median protective dose. The note with it: read-out: PD50. The format is functional.
Data set [10] has as its system Klebsiella pneumoniae. Briefly: In vivo potency on systemic infection caused by Klebsiella pneumoniae A 9664 after oral administration to mice expressed as median protective dose. The format is functional. The note with it: read-out: PD50.
Data set [11] concerns Klebsiella pneumoniae. Briefly: In vivo potency on systemic infection caused by after oral administration to mice expressed as median protective dose perorally. The note with it: read-out: PD50. The data set is classed as functional.

In brackets after ≈: the same amount, converted by molar mass.

On to `CC1(C)CN(c2nc3c(cc2F)c(=O)c(C(=O)O)cn3C(C)(C)C)C[C@H]1N`, for which the MIC – broadly, the smallest concentration in the dilution series that meets the test's criterion for growth inhibition – in the data set with Enterococcus faecium stood at 2 µg/mL (≈ 5.31 µM); in the data set on Serratia marcescens it was 0.5 µg/mL (≈ 1.33 µM); in the data set with Enterococcus faecalis it was 0.25 µg/mL (≈ 0.664 µM); in the data set on Escherichia coli [1] it was 0.06 µg/mL (≈ 0.159 µM); in the data set with Morganella morganii, 0.5 µg/mL (≈ 1.33 µM); with Enterobacter cloacae, 0.03 µg/mL (≈ 0.0797 µM). Also, the MIC in the data set with Klebsiella pneumoniae [2] was determined as 0.13 µg/mL (≈ 0.345 µM); in the data set on Staphylococcus aureus [3], 0.015 µg/mL (≈ 0.0398 µM); in the data set with Pseudomonas aeruginosa [4] it was 2 µg/mL (≈ 5.31 µM).

As to `CN(C)[C@H]1CCN(c2nc3c(cc2F)c(=O)c(C(=O)O)cn3C(C)(C)C)C1`, the minimal inhibitory concentration (MIC) worked out at 4 µg/mL (≈ 10.6 µM) in the data set on Enterococcus faecium; 1 µg/mL (≈ 2.66 µM) in the data set on Serratia marcescens; 0.5 µg/mL (≈ 1.33 µM) in the data set with Enterococcus faecalis; 0.015 µg/mL (≈ 0.0398 µM) with Escherichia coli [1]; 0.03 µg/mL (≈ 0.0797 µM) with Enterobacter cloacae; 0.06 µg/mL (≈ 0.159 µM) in the data set with Klebsiella pneumoniae [2]. Moreover, the minimum inhibitory concentration (MIC) is 0.03 µg/mL (≈ 0.0797 µM) in the data set on Staphylococcus aureus [3] and 2 µg/mL (≈ 5.31 µM) in the data set with Pseudomonas aeruginosa [4].

On to `C[C@@H]1C[C@H](N)CN1c1nc2c(cc1F)c(=O)c(C(=O)O)cn2C(C)(C)C`, for which the MIC in the data set with Enterococcus faecium worked out at 2 µg/mL (≈ 5.52 µM); with Serratia marcescens, 2 µg/mL (≈ 5.52 µM); in the data set on Enterococcus faecalis, 0.5 µg/mL (≈ 1.38 µM); with Escherichia coli [1], 0.25 µg/mL (≈ 0.69 µM); with Morganella morganii it was 2 µg/mL (≈ 5.52 µM); in the data set on Enterobacter cloacae, 0.25 µg/mL (≈ 0.69 µM). Besides, the MIC in the data set with Klebsiella pneumoniae [2] was found to be 0.25 µg/mL (≈ 0.69 µM); in the data set on Staphylococcus aureus [3], 0.13 µg/mL (≈ 0.359 µM); with Pseudomonas aeruginosa [4], 8 µg/mL (≈ 22.1 µM).

For the compound `C[C@@H]1CN(c2nc3c(cc2F)c(=O)c(C(=O)O)cn3C(C)(C)C)C[C@@H]1N`, the MIC turned out to be 4 µg/mL (≈ 11 µM) in the data set with Enterococcus faecium; 0.5 µg/mL (≈ 1.38 µM) in the data set on Serratia marcescens; 0.5 µg/mL (≈ 1.38 µM) in the data set on Enterococcus faecalis; 0.13 µg/mL (≈ 0.359 µM) in the data set on Escherichia coli [1]; 0.5 µg/mL (≈ 1.38 µM) in the data set on Morganella morganii; 0.03 µg/mL (≈ 0.0828 µM) with Enterobacter cloacae. Further, the results for the MIC in the data set with Klebsiella pneumoniae [2], with Staphylococcus aureus [3] and in the data set on Pseudomonas aeruginosa [4] were 0.06 µg/mL (≈ 0.166 µM), 0.015 µg/mL (≈ 0.0414 µM) and 1 µg/mL (≈ 2.76 µM), respectively.

For the compound `O=C(O)c1cn(C2CC2)c2cc(N3CCNCC3)c(F)cc2c1=O` [CIPROFLOXACIN], the MIC in the data set with Enterococcus faecium came to 4 µg/mL (≈ 12.1 µM); in the data set with Serratia marcescens, 0.03 µg/mL (≈ 0.0905 µM); in the data set with Morganella morganii it was 0.06 µg/mL (≈ 0.181 µM); in the data set with Klebsiella pneumoniae [2] it was 0.06 µg/mL (≈ 0.181 µM); in the data set on Staphylococcus aureus [3] it was 0.06 µg/mL (≈ 0.181 µM). In addition, the ED50 with Staphylococcus aureus [5] is 4 mg/kg; in the data set with Escherichia coli [6], 0.7 mg/kg; in the data set on Pseudomonas aeruginosa [7], 5 mg/kg; in the data set on Klebsiella pneumoniae [8] it was 1.5 mg/kg. In addition, in the data set “in vivo”, the highest level (Cmax) was 5900 ng/mL.

In the case of `CC(C)(C)n1cc(C(=O)O)c(=O)c2cc(F)c(N3CC[C@@H](N)C3)nc21`, the MIC in the data set with Enterococcus faecium stood at 1 µg/mL (≈ 2.87 µM); in the data set with Serratia marcescens, 0.25 µg/mL (≈ 0.718 µM); in the data set with Enterococcus faecalis, 0.13 µg/mL (≈ 0.373 µM); in the data set with Escherichia coli [1] it was 0.06 µg/mL (≈ 0.172 µM); with Morganella morganii, 0.25 µg/mL (≈ 0.718 µM); with Enterobacter cloacae, 0.06 µg/mL (≈ 0.172 µM). The minimal inhibitory concentration (MIC) amounted to 0.13 µg/mL (≈ 0.373 µM) in the data set with Klebsiella pneumoniae [2], 0.015 µg/mL (≈ 0.0431 µM) with Staphylococcus aureus [3] and 0.25 µg/mL (≈ 0.718 µM) in the data set on Pseudomonas aeruginosa [4]. For the same compound, the ED50 in the data set on Escherichia coli [9] and in the data set on Klebsiella pneumoniae [10] was 4.9 mg/kg each time.

In the case of `C[C@H]1CN(c2nc3c(cc2F)c(=O)c(C(=O)O)cn3C(C)(C)C)C[C@H]1N`, the minimal inhibitory concentration (MIC) in the data set on Enterococcus faecium came out at 1 µg/mL (≈ 2.76 µM); with Serratia marcescens it was 0.13 µg/mL (≈ 0.359 µM); in the data set on Enterococcus faecalis it was 0.25 µg/mL (≈ 0.69 µM); with Escherichia coli [1] it was 0.016 µg/mL (≈ 0.0441 µM); in the data set on Morganella morganii, 0.13 µg/mL (≈ 0.359 µM); with Enterobacter cloacae, 0.13 µg/mL (≈ 0.359 µM). The minimal inhibitory concentration (MIC) stood at 0.5 µg/mL (≈ 1.38 µM) in the data set with Klebsiella pneumoniae [2], 0.008 µg/mL (≈ 0.0221 µM) in the data set on Staphylococcus aureus [3] and 1 µg/mL (≈ 2.76 µM) in the data set with Pseudomonas aeruginosa [4]. The ED50 in the data set with Staphylococcus aureus [5] was determined as 1 mg/kg; with Escherichia coli [6] it was 1.4 mg/kg; in the data set with Pseudomonas aeruginosa [7], 4.7 mg/kg; with Klebsiella pneumoniae [8], 3.9 mg/kg.

For `CN(C)C1CCN(c2nc3c(cc2F)c(=O)c(C(=O)O)cn3C(C)(C)C)C1` (stereo unspecified), the minimum inhibitory concentration (MIC) turned out to be 8 µg/mL (≈ 21.3 µM) with Enterococcus faecium; 1 µg/mL (≈ 2.66 µM) with Serratia marcescens; 1 µg/mL (≈ 2.66 µM) in the data set on Enterococcus faecalis; 0.25 µg/mL (≈ 0.664 µM) in the data set with Escherichia coli [1]; 0.5 µg/mL (≈ 1.33 µM) in the data set with Morganella morganii; 1 µg/mL (≈ 2.66 µM) with Enterobacter cloacae. Also, the MIC was 0.13 µg/mL (≈ 0.345 µM) in the data set on Klebsiella pneumoniae [2], 0.03 µg/mL (≈ 0.0797 µM) in the data set on Staphylococcus aureus [3] and 1 µg/mL (≈ 2.66 µM) with Pseudomonas aeruginosa [4].

Regarding `C[C@@H]1CN(c2nc3c(cc2F)c(=O)c(C(=O)O)cn3C(C)(C)C)C[C@H]1N`, the minimum inhibitory concentration (MIC) with Enterococcus faecium is 0.5 µg/mL (≈ 1.38 µM); in the data set with Serratia marcescens it was 0.25 µg/mL (≈ 0.69 µM); with Enterococcus faecalis, 0.06 µg/mL (≈ 0.166 µM); in the data set with Escherichia coli [1], 0.016 µg/mL (≈ 0.0441 µM); in the data set on Morganella morganii it was 0.25 µg/mL (≈ 0.69 µM); with Enterobacter cloacae it was 0.016 µg/mL (≈ 0.0441 µM). The values for the MIC in the data set on Klebsiella pneumoniae [2], in the data set with Staphylococcus aureus [3] and in the data set with Pseudomonas aeruginosa [4] were 0.03 µg/mL (≈ 0.0828 µM), 0.002 µg/mL (≈ 0.00552 µM) and 0.5 µg/mL (≈ 1.38 µM), respectively. Besides, the ED50 stood at 0.81 mg/kg with Klebsiella pneumoniae [11], 1.2 mg/kg in the data set with Staphylococcus aureus [5], 2.1 mg/kg with Escherichia coli [6] and 5.5 mg/kg with Pseudomonas aeruginosa [7].
